Experimental data from ChEMBL document CHEMBL4393653, “Applications of Deuterium in Medicinal Chemistry” (J Med Chem, 2019).

Experiments:
[1] = Half life in human liver microsomes; format: ADME, Microsome
[2] = Cmax in rat at 10 mg/kg, po; format: ADME, organism-based; set-up: dose 10 mg/kg, route oral; details: in vivo
[3] = Half life in rat at 10 mg/kg, po; format: ADME, organism-based; details: in vivo

Structure (SMILES)	half-life [1] [h]	Cmax [2] [µg/mL]	half-life [3] [h]
Cc1nnc(C(C)C)n1[C@@H]1C[C@H]2CC[C@@H](C1)N2CC[C@H](NC(=O)C1CCC(F)(F)CC1)c1ccccc1 [MARAVIROC]	1.62		
[2H]C([2H])([2H])c1nnc(C(C)C)n1[C@@H]1C[C@H]2CC[C@@H](C1)N2CC[C@H](NC(=O)C1CCC(F)(F)CC1)c1ccccc1	0.758		
CS(=O)(=O)c1ccc(C2=C(c3ccccc3)C(=O)OC2)cc1 [ROFECOXIB]		2.42	4.18
[2H]c1c([2H])c([2H])c(C2=C(c3ccc(S(C)(=O)=O)cc3)COC2=O)c([2H])c1[2H]		4.18	4.29
[2H]C([2H])([2H])c1nnc(C(C)C)n1[C@@H]1C[C@H]2CC[C@@H](C1)N2C([2H])([2H])C[C@H](NC(=O)C1CCC(F)(F)CC1)c1ccccc1	2.42		
